Data reported in ChEMBL document CHEMBL4184199, “Structural optimization of N1-aryl-benzimidazoles for the discovery of new non-nucleoside reverse transcriptase inhibitors active against wild-type and mutant HIV-1 strains” (Bioorg Med Chem, 2018).
Active and inactive are the calls of the source. No cut-off for these calls is given here.

How the values were obtained:
[1] = Cytotoxicity against human MT4 cells after 5 days by MTT assay; format: cell-based
[2] = Selectivity index, ratio of CC50 for human MT4 cells to EC50 for HIV1 3B expressing wild type reverse transcriptase; format: toxicity; conditions: read-out: Ratio CC50/EC50
[3] = tested on: Human immunodeficiency virus 1; assay: Antiviral activity against HIV1 3B infected in human MT4 cells assessed as reduction in virus-induced cytopathic effect after 5 days by MTT assay; format: functional, organism-based; conditions: Human immunodeficiency virus 1, 3B, MT4, 120 h
[4] = target: Human immunodeficiency virus type 1 reverse transcriptase (Human immunodeficiency virus 1, UniProt Q72547); assay: Inhibition of recombinant wild-type HIV-1 3B reverse transcriptase p66/p51 RNA-dependent DNA polymerase activity expressed in Escherichia coli JM109 assessed as reduction in dTTP incorporation using poly(rA)/oligo(dT)16 as template/primer after 40 mins by PicoGreen dye based spectrofluorometric analysis
[5] = tested on: Human immunodeficiency virus 2; assay: Antiviral activity against HIV2 ROD infected in human MT4 cells assessed as reduction in virus-induced cytopathic effect after 5 days by MTT assay; format: functional, organism-based; conditions: ISOLATE ROD

SMILES | CC50 at 120 h [1] | selectivity ratio [2] | EC50 [3] | IC50 [4] | Activity [5]
O=C1Nc2ccc(Cl)cc2[C@@](C#CC2CC2)(C(F)(F)F)O1 [EFAVIRENZ] | > 6.33 µM |  |  |  | 
Cc1ccnc2c1NC(=O)c1cccnc1N2C1CC1 [NEVIRAPINE] | > 15 µM |  |  |  | 
Cc1cc(C)cc(S(=O)(=O)n2c(SCC(=O)Nc3ccc(C(=O)O)cc3)nc3ccccc32)c1 | 115 µM | 577 | 0.2 µM | 0.13 µM | inactive
COC(=O)c1ccc(NC(=O)CSc2nc3ccccc3n2S(=O)(=O)c2cc(C)cc(C)c2)cc1 | 10 µM | 196 | 0.051 µM | 0.088 µM | inactive
COC(=O)c1ccccc1NC(=O)CSc1nc2ccccc2n1S(=O)(=O)c1cc(C)cc(C)c1 | 5.22 µM | < 5 | ≥ 1.06 µM | 15.7 µM | inactive
Cc1cc(C)cc(S(=O)(=O)n2c(SCC(=O)Nc3ccc(S(C)(=O)=O)cc3Cl)nc3ccccc32)c1 | ≥ 222 µM | 5540 |  |  | 
Cc1cc(C)cc(S(=O)(=O)n2c(SCC(=O)Nc3ccc(S(C)(=O)=O)cc3)nc3ccccc32)c1 | 10.6 µM | 385 | 0.028 µM | 0.047 µM | inactive
Cc1cc(C)cc(S(=O)(=O)n2c(SCC(=O)Nc3ccc(S(N)(=O)=O)cc3)nc3ccccc32)c1 | 30.9 µM | 1290 | 0.024 µM | 0.05 µM | inactive
Cc1cc(C)cc(S(=O)(=O)n2c(SCC(=O)Nc3ccc(S(N)(=O)=O)cc3Cl)nc3ccccc32)c1 |  |  |  |  | inactive
Cc1cc(C)cc(S(=O)(=O)n2c(SCC(=O)Nc3ccccc3C(=O)O)nc3ccccc32)c1 | 25.2 µM | 4 | 6.83 µM | 21.3 µM | inactive
Cc1cc(C)cc(S(=O)(=O)n2c(OCC(=O)Nc3ccc(S(N)(=O)=O)cc3Cl)nc3ccccc32)c1 | > 227 µM | > 908 | 0.25 µM | 5.84 µM | inactive
COC(=O)c1ccc(NC(=O)CSc2nc3ccccc3n2S(=O)(=O)c2cc(C)cc(C)c2)c(Cl)c1 | 145 µM |  |  |  | inactive
Cc1cc(C)cc(S(=O)(=O)n2c(SCC(=O)Nc3ccccc3Br)nc3ccccc32)c1 | ≥ 236 µM | > 3930 |  |  | inactive
COC(=O)c1ccc(NC(=O)COc2nc3ccccc3n2S(=O)(=O)c2cc(C)cc(C)c2)c(Cl)c1 | 119 µM | 151 | 0.79 µM | 5.45 µM | inactive
Cc1cc(C)cc(S(=O)(=O)n2c(OCC(=O)Nc3ccccc3Br)nc3ccccc32)c1 | > 243 µM | > 157 | 1.55 µM | 15.7 µM | inactive
Cc1ccc(NC(=O)CSc2nc3ccccc3n2S(=O)(=O)c2cc(C)cc(C)c2)cc1 | 2.97 µM | 31 | 0.094 µM | 0.091 µM | inactive
Cc1cc(C)cc(S(=O)(=O)n2c(SCC(=O)Nc3ccccc3S(C)(=O)=O)nc3ccccc32)c1 | 9.31 µM | < 1 | ≥ 9.44 µM | 60.6 µM | inactive
Cc1cc(C)cc(S(=O)(=O)n2c(SCC(=O)Nc3ccccc3C)nc3ccccc32)c1 | 6.15 µM | 27 | 0.235 µM | 0.222 µM | inactive
Cc1cc(C)cc(S(=O)(=O)n2c(SCC(=O)Nc3ccccc3Cl)nc3ccccc32)c1 |  |  | 0.88 µM |  | inactive
Cc1cc(C)cc(S(=O)(=O)n2c(OCC(=O)Nc3ccc(S(C)(=O)=O)cc3Cl)nc3ccccc32)c1 | > 228 µM | > 1890 | 0.12 µM | 0.76 µM | inactive
Cc1cc(C)cc(S(=O)(=O)n2c(OCC(=O)Nc3ccccc3Cl)nc3ccccc32)c1 | 169 µM | 155 | 1.09 µM | 47.3 µM | inactive
Cc1cc(C)cc(S(=O)(=O)n2c(SCC(=O)Nc3ccccc3S(N)(=O)=O)nc3ccccc32)c1 | 25 µM | 9 | 2.72 µM | 7.68 µM | inactive
